Reference: the supplement of paper PMC10307832

Assays:
Experiment in all cases: relative viability (nuclei count vs DMSO), 5 days (fraction); higher = more cells survive
Idelalisib + Navitoclax = compound: CC[C@H](Nc1ncnc2[nH]cnc12)c1nc2cccc(F)c2c(=O)n1-c1ccccc1 [Idelalisib] + CC1(C)CCC(c2ccc(Cl)cc2)=C(CN2CCN(c3ccc(C(=O)NS(=O)(=O)c4ccc(N[C@H](CCN5CCOCC5)CSc5ccccc5)c(S(=O)(=O)C(F)(F)F)c4)cc3)CC2)C1 [Navitoclax] (partner 0.5 µM)
Outline: (§1)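 Lung cancer cell lines, seeded in 1536-well plates, were treated the following day by pin tool with a single drug or with five library-drug doses (not always all listed) in √10 steps on top of a fixed anchor-drug dose. Cells were fixed and nuclei stained in one step after 5 days, and nuclei were counted. Relative viability is the nuclei count for treated wells divided by that for vehicle wells, reported as medians of duplicate plates.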

Idelalisib + Olaparib = compound: CC[C@H](Nc1ncnc2[nH]cnc12)c1nc2cccc(F)c2c(=O)n1-c1ccccc1 [Idelalisib] + O=C(c1cc(Cc2n[nH]c(=O)c3ccccc23)ccc1F)N1CCN(C(=O)C2CC2)CC1 [Olaparib] (partner 8 µM)
Outline: as §1

Pemetrexed + Decitabine = compound: Nc1nc2[nH]cc(CCc3ccc(C(=O)N[C@@H](CCC(=O)O)C(=O)O)cc3)c2c(=O)[nH]1 [Pemetrexed] + Nc1ncn([C@H]2C[C@H](O)[C@@H](CO)O2)c(=O)n1 [Decitabine] (partner 2 µM)
Outline: as §1

Idelalisib + Pemetrexed = compound: CC[C@H](Nc1ncnc2[nH]cnc12)c1nc2cccc(F)c2c(=O)n1-c1ccccc1 [Idelalisib] + Nc1nc2[nH]cc(CCc3ccc(C(=O)N[C@@H](CCC(=O)O)C(=O)O)cc3)c2c(=O)[nH]1 [Pemetrexed] (partner 0.2 µM)
Outline: as §1

Row | Cell Line | relative viability (Idelalisib + Navitoclax; first compound 0.04 µM) | relative viability (Idelalisib + Navitoclax; first compound 0.1265 µM) | relative viability (Idelalisib + Navitoclax; first compound 0.4 µM) | relative viability (Idelalisib + Navitoclax; first compound 1.265 µM) | relative viability (Idelalisib + Navitoclax; first compound 4 µM) | relative viability (Idelalisib + Olaparib; first compound 0.04 µM) | relative viability (Idelalisib + Olaparib; first compound 0.1265 µM) | relative viability (Idelalisib + Olaparib; first compound 0.4 µM) | relative viability (Idelalisib + Olaparib; first compound 1.265 µM) | relative viability (Idelalisib + Olaparib; first compound 4 µM) | relative viability (Pemetrexed + Decitabine; first compound 0.002 µM) | relative viability (Pemetrexed + Decitabine; first compound 0.006325 µM) | relative viability (Pemetrexed + Decitabine; first compound 0.02 µM) | relative viability (Pemetrexed + Decitabine; first compound 0.06325 µM) | relative viability (Pemetrexed + Decitabine; first compound 0.2 µM) | relative viability (Idelalisib + Pemetrexed; first compound 0.04 µM) | relative viability (Idelalisib + Pemetrexed; first compound 0.1265 µM) | relative viability (Idelalisib + Pemetrexed; first compound 0.4 µM) | relative viability (Idelalisib + Pemetrexed; first compound 1.265 µM) | relative viability (Idelalisib + Pemetrexed; first compound 4 µM)
1 | NCI-H1944 | 1.03 | 1.02 | 1.07 | 0.923 | 0.841 | 0.427 | 0.395 | 0.388 | 0.394 | 0.406 | 0.378 | 0.37 | 0.405 | 0.427 | 0.458 | 0.724 | 0.58 | 0.516 | 0.484 | 0.586
2 | NCI-H1651 | 0.73 | 1.09 | 1.01 | 1.07 | 0.792 | 0.19 | 0.171 | 0.184 | 0.161 | 0.179 | 0.525 | 0.593 | 0.631 | 0.404 | 0.653 | 0.634 | 0.355 | 0.537 | 0.522 | 0.59
3 | EBC-1 | 0.413 | 0.409 | 0.359 | 0.442 | 0.212 | 0.721 | 0.777 | 0.763 | 0.65 | 0.588 | – | – | – | – | – | – | – | – | – | –
4 | COR-L 105 | 0.794 | 1.04 | 0.805 | 0.893 | 0.52 | 0.628 | 0.638 | 0.656 | 0.715 | 0.666 | 0.672 | 0.692 | 0.699 | 0.633 | 0.685 | 1.18 | 1.1 | 0.913 | 1.06 | 0.924
5 | RERF-LC-KJ | 0.922 | 0.951 | 0.884 | 0.792 | 0.638 | 0.873 | 0.941 | 0.864 | 0.892 | 0.814 | 0.609 | 0.753 | 0.801 | 0.721 | 0.415 | 0.46 | 0.44 | 0.46 | 0.491 | 0.448
6 | NCI-H1793 | 0.379 | 0.462 | 0.259 | 0.346 | 0.22 | 0.957 | 0.764 | – | 0.566 | 0.529 | 0.512 | 0.449 | 0.583 | 0.512 | 0.528 | 0.821 | 0.95 | – | 0.81 | 0.627
7 | CAL-12T | 1.24 | 1.32 | 1.14 | 1.29 | 1.06 | 0.767 | 0.823 | 0.796 | 0.852 | 0.75 | – | – | – | – | – | 1.34 | 0.925 | 1.22 | 1.21 | 1.23
8 | A549 | 1.5 | 1.23 | 1.22 | 1.33 | 1.02 | 0.238 | 0.28 | 0.236 | 0.266 | 0.361 | 0.234 | 0.213 | 0.194 | 0.346 | 0.281 | – | – | – | – | –
9 | NCI-H2342 | – | – | – | – | – | 0.442 | 0.481 | 0.457 | 0.421 | 0.407 | 0.675 | 0.701 | 0.767 | 0.716 | 0.835 | 0.853 | 0.74 | 0.717 | 0.706 | 0.765
10 | NCI-H1648 | – | – | – | – | – | – | 1.16 | 0.712 | 1.11 | 0.657 | 0.407 | 0.431 | 0.655 | 0.508 | 0.394 | 0.711 | 0.76 | 0.806 | 0.749 | 0.53
11 | ABC-1 | – | – | – | – | – | 0.947 | 0.913 | 0.78 | 0.97 | 0.68 | 1.15 | 1.02 | 1.32 | 0.997 | 1.19 | – | – | – | – | –
12 | NCI-H661 | – | – | – | – | – | 0.821 | 0.783 | 0.738 | 0.888 | 0.764 | 0.586 | 0.513 | 0.646 | 0.608 | 0.559 | 0.973 | 0.926 | 0.911 | 0.952 | 0.924
13 | NCI-H1563 | – | – | – | – | – | – | – | – | – | – | – | – | – | – | – | 0.845 | 0.73 | 0.714 | 0.757 | 0.732
14 | NCI-H727 | 0.454 | 0.57 | 0.416 | 0.548 | 0.354 | 0.813 | 0.624 | 0.688 | 0.779 | 0.836 | 0.922 | 0.796 | 0.835 | 0.792 | 0.865 | – | – | – | – | –
15 | NCI-H522 | – | – | – | – | – | 0.684 | 0.526 | 0.606 | 0.678 | 0.72 | 0.624 | 0.692 | 0.721 | 0.691 | 0.73 | 1.3 | 0.99 | 0.995 | 1.21 | 1.05
16 | NCI-H2228 | 1.04 | 0.569 | 0.742 | 1.03 | 0.666 | 0.911 | 0.985 | 0.589 | 0.871 | 0.538 | – | – | – | – | – | 0.369 | 0.323 | 0.407 | 0.312 | 0.325
17 | NCI-H1299 | 1.04 | 1.01 | 1.07 | 1.12 | 1.08 | 1.01 | 0.982 | 0.941 | 1.02 | 1.06 | – | – | – | – | – | – | – | – | – | –
18 | NCI-H358 | – | – | – | – | – | 0.562 | 0.586 | 0.522 | 0.606 | 0.516 | 0.177 | 0.208 | 0.214 | 0.155 | 0.127 | 0.18 | 0.171 | 0.182 | 0.168 | 0.157
19 | LCLC-103H | – | – | – | – | – | 0.728 | 0.791 | 0.721 | 0.757 | 0.705 | 0.722 | 0.723 | 0.743 | 0.699 | 0.76 | 0.508 | 0.456 | 0.471 | 0.505 | 0.477
20 | Calu-6 | 0.987 | 0.938 | 0.755 | 0.822 | 0.776 | 0.669 | 0.61 | 0.533 | 0.657 | 0.53 | – | – | – | – | – | – | – | – | – | –
21 | NCI-H650 | – | – | – | – | – | 0.414 | 0.441 | 0.362 | 0.334 | 0.37 | 0.287 | 0.31 | – | 0.293 | 0.313 | 0.983 | 0.995 | 0.923 | 0.77 | 0.92
